In series [1] the target is T1, Aurora kinase A (Homo sapiens) (UniProt O14965).
T1 sequence (whole entry): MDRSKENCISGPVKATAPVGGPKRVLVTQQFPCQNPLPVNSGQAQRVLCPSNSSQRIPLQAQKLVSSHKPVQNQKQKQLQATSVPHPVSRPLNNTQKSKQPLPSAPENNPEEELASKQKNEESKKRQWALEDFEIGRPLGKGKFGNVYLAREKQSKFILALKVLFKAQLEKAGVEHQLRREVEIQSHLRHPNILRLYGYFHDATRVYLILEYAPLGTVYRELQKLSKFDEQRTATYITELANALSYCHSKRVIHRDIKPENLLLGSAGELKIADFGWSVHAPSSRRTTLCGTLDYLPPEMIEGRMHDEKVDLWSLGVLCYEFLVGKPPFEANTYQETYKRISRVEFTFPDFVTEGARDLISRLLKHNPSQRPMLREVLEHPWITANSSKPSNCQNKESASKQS
The series can be described thus: Inhibition of Aurora kinase A assessed as inhibition of substrate phosphorylation using fluorescent peptide substrate up to 100 uM by microplate reader assay.

The target in series [2] is Serine/threonine-protein kinase Chk2 (Homo sapiens, UniProt O96017).
Description: Inhibition of CHK2 assessed as inhibition of substrate phosphorylation using fluorescent peptide substrate by microplate reader assay
The target of series [3] is T2, Serine/threonine-protein kinase Chk1 (Homo sapiens, UniProt O14757).
T2 sequence (O14757 whole entry): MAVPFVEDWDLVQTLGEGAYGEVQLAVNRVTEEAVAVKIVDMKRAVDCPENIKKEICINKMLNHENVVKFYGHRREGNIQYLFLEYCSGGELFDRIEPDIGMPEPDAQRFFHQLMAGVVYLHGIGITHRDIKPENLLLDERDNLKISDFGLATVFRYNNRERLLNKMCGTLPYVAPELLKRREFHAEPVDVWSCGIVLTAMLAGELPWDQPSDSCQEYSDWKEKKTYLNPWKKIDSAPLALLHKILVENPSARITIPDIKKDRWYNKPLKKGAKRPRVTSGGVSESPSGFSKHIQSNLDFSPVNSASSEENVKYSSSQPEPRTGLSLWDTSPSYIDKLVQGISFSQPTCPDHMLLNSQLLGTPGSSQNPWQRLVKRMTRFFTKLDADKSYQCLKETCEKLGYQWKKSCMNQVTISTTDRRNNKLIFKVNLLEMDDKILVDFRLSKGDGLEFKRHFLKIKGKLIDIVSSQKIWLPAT
Description: Inhibition of CHK1 assessed as inhibition of substrate phosphorylation using fluorescent peptide substrate by microplate reader assay

The target in series [4] is T3, Ribosomal protein S6 kinase alpha-3 (Homo sapiens, UniProt P51812).
Description: Inhibition of RSK2 assessed as inhibition of substrate phosphorylation using fluorescent peptide substrate by microplate reader assay
Series [5] deals with T3, Ribosomal protein S6 kinase alpha-3. The experiment in a line: Inhibition of RSK2-mediated GSK3-beta Ser9 phosphorylation in TPA-induced human MCF7 cells at 10 nM pretreated for 30 mins by immunoblotting. The series is classed as cell-based. A general note: In western blotting, separated proteins are transferred to a membrane and probed.
The target is the same in series [6]. The experiment in a line: Inhibition of RSK2-mediated GSK3alpha Ser21 phosphorylation in TPA-induced human MCF7 cells at 10 nM pretreated for 30 mins by immunoblotting. Type of series: cell-based.
In a further series the test system is MCF-10A. The series can be described thus: Antiproliferative activity against human MCF10A cells assessed as reduction in cell viability after 48 hrs celltiter glo assay. Type of series: cell-based. (Cellular ATP, detected with luciferase, serves as a proxy for viable cell number.)
The test system of a further series is MCF7. The series can be described thus: Antiproliferative activity against human MCF7 cells assessed as reduction in cell viability after 48 hrs celltiter glo assay. Type of series: functional, cell-based.

Activity calls are given as the source filed them.

T3 sequence (P51812 whole entry): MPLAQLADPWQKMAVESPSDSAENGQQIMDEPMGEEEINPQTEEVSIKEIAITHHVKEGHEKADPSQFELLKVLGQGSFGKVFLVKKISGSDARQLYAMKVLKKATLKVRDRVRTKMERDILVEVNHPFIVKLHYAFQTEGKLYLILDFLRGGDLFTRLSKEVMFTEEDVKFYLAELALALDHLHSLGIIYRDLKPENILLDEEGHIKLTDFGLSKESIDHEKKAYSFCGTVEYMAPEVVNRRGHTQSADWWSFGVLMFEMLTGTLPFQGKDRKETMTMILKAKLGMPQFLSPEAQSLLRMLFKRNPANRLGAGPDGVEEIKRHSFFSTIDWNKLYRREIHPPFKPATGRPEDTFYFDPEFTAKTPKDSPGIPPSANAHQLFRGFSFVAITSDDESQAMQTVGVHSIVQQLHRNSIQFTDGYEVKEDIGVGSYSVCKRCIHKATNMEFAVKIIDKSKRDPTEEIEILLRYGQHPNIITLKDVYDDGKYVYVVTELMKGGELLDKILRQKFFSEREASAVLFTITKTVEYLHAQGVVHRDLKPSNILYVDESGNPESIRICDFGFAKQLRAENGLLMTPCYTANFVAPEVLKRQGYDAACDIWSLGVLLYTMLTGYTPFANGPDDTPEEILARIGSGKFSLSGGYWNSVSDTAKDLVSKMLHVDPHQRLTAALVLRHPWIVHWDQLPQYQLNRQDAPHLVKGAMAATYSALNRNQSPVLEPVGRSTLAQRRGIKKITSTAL
Chain of Serine/threonine-protein kinase Chk2 (O96017 whole entry): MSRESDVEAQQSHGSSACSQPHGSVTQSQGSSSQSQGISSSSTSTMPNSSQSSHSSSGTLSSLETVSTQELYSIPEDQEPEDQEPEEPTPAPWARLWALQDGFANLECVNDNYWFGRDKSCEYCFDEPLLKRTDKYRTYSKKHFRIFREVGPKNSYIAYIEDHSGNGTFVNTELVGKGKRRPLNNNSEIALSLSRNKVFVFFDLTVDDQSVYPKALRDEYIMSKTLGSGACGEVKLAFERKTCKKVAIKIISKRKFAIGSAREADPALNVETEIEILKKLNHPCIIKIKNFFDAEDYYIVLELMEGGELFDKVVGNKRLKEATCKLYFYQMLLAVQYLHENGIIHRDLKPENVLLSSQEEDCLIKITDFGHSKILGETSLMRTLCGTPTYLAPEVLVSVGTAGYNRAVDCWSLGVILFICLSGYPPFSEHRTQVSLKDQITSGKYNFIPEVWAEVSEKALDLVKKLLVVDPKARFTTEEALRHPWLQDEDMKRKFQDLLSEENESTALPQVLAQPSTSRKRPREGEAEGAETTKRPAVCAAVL

One may read the inhibition as how much of the control response was suppressed. One may read the IC50 as the point on the concentration scale where inhibition reaches its midpoint. A higher IC50 goes with a need for much substance. Regarding `N=C(N)N/N=C\c1c(-c2ccc(Br)c([N+](=O)[O-])c2)nc2sccn12`, the inhibition entry in series [1] is “inactive”. For the same molecule, the IC50 in series [2] was above 100 µM; in series [3], above 100 µM; in series [4] it was 56.7 µM.

In the case of `N=C(N)N/N=C/c1c(-c2ccc(F)c([N+](=O)[O-])c2)nc2sc(Cl)cn12`, the inhibition entry in series [1] was “inactive”. The concentration for half-maximal inhibition (IC50) is 41.3 µM in series [2], above 100 µM in series [3] and 3.93 µM in series [4].

With `Cc1cn2c(/C=N\NC(=N)N)c(-c3ccc(F)c([N+](=O)[O-])c3)nc2s1`, in series [1], the inhibition result was “inactive”. The results for the half-inhibitory concentration (IC50) in series [2], in series [3] and in series [4] were 18.8 µM, 78.5 µM and 30.7 µM, respectively.

Consider `N=C(N)N/N=C/c1c(-c2ccc([N+](=O)[O-])cc2)nc2sc(Cl)cn12`, for which the inhibition in series [5], in series [6] and in series [1] was 50% throughout. For the same molecule, the half-inhibitory concentration (IC50) in series [2] is 78.8 µM; in series [3] it was above 100 µM; in series [4], 0.97 µM.

For `N#Cc1ccc(-c2nc3sc(Cl)cn3c2/C=N/NC(=N)N)cc1`, in series [1], the inhibition entry is “inactive”. For the same molecule, the half-inhibitory concentration (IC50) in series [2] was 93.5 µM; in series [3] it was above 100 µM; in series [4], 8.55 µM.

Take `N=C(N)N/N=C/c1c(-c2cc(Cl)sc2Cl)nc2sc(Cl)cn12`: the inhibition result in series [1] is “inactive”. Also, the results for the IC50 in series [2], in series [3] and in series [4] were above 100 µM, above 100 µM and 8.26 µM, respectively.

For `N=C(N)N/N=C/c1c(-c2ccc(F)cc2)nc2sc(Cl)cn12`, the inhibition entry in series [1] was “inactive”. Moreover, the figures for the IC50 in series [2], in series [3] and in series [4] were 90 µM, above 100 µM and 86 µM, respectively.

Turning to `Cc1cn2c(/C=N\NC(=N)N)c(-c3ccc(F)cc3)nc2s1`, the inhibition result in series [1] was “inactive”. Moreover, the IC50 was above 50 µM in series [2], above 100 µM in series [3] and above 100 µM in series [4].

As to `N=C(N)N/N=C/c1c(-c2cc(Cl)sc2Cl)nc2sc3ccccc3n12`, the inhibition entry in series [1] is “inactive”. Besides, the IC50 in series [2] is above 100 µM; in series [3], above 100 µM; in series [4], 12 µM.

For `Cl.N=C(N)N/N=C/c1c(-c2ccc(Cl)c([N+](=O)[O-])c2)nc2sccn12`, in the series on MCF-10A, the Activity result is given as “Non-toxic”. The result in the series with MCF7 was Active. Besides, the 50% inhibitory concentration (IC50) in series [2] was 81 µM; in series [3], above 100 µM; in series [4], 3.13 µM.

Take `Cl.N=C(N)N/N=C\c1c(-c2ccc([N+](=O)[O-])cc2)nc2sc(F)cn12`: the inhibition in series [5] and in series [6] was 50% throughout. The Activity result in the series on MCF-10A is reported as “Non-toxic”. Moreover, the outcome in the series with MCF7 was Active. The inhibition result in series [1] is “inactive”. Besides, the IC50 in series [2] was 56.5 µM; in series [3], above 100 µM; in series [4], 2.15 µM.

As to `COc1cc([N+](=O)[O-])c(OC)cc1-c1nc2ccccn2c1/C=N/NC(=N)N`, in series [1], the inhibition entry is “inactive”. The figures for the half-inhibitory concentration (IC50) in series [2], in series [3] and in series [4] were above 100 µM, above 100 µM and 7.8 µM, respectively.

As for `N=C(N)N/N=C\c1c(-c2ccc(F)c([N+](=O)[O-])c2)nc2sccn12`, the inhibition entry in series [1] is “inactive”. The IC50 in series [2] was 77.5 µM; in series [3], above 100 µM; in series [4] it was 53.8 µM.

Consider `Cc1cn2c(/C=N/NC(=N)N)c(-c3ccc([N+](=O)[O-])cc3)nc2s1.Cl`, for which the Activity entry in the series with MCF-10A is “Toxic”. In the series on MCF7, the outcome was Active. The IC50 is 83 µM in series [2], above 100 µM in series [3] and 2.8 µM in series [4].

Regarding `Cl.N=C(N)N/N=C/c1c(-c2ccc(Cl)c([N+](=O)[O-])c2)nc2sc(Cl)cn12`, the Activity entry with MCF-10A is “Non-toxic”. Moreover, the outcome in the series with MCF7 was Active. The IC50 in series [2] was 90 µM; in series [3], above 100 µM; in series [4], 5.85 µM.

Regarding `N=C(N)N/N=C\c1c(-c2ccc(F)cc2)nc2sccn12`, in series [1], the inhibition result is “inactive”. Further, the half-inhibitory concentration (IC50) in series [2], in series [3] and in series [4] was above 100 µM each time.

On to `COc1cc([N+](=O)[O-])c(OC)cc1-c1nc2sc3ccccc3n2c1/C=N/NC(=N)N`, for which the inhibition result in series [1] was “inactive”. Moreover, the half-inhibitory concentration (IC50) in series [2] is above 100 µM; in series [3], above 100 µM; in series [4], 10.1 µM.

On to `CCCc1cn2c(/C=N/NC(=N)N)c(-c3cc([N+](=O)[O-])c(Cl)cc3Cl)nc2s1`, for which the figures for the IC50 in series [2], in series [3] and in series [4] were above 100 µM, above 100 µM and 5.97 µM, respectively.

As for `Cc1sc2nc(-c3cccnc3)c(/C=N/NC(=N)N)n2c1C`, the IC50 was 6.58 µM in series [2], above 100 µM in series [3] and 100 µM in series [4].

In the case of `N=C(N)N/N=C/c1c(-c2ccc(Cl)c([N+](=O)[O-])c2)nc2sc3ccccc3n12`, the IC50 in series [2] is above 100 µM; in series [3], above 100 µM; in series [4], 7.32 µM.

With `N=C(N)N/N=C/c1c(-c2ccc(Cl)cc2)nc2sc(Cl)cn12`, the figures for the IC50 in series [2], in series [3] and in series [4] were 49.3 µM, above 7900 µM and 14 µM, respectively.

On to `Cc1csc2nc(-c3ccc(Cl)c([N+](=O)[O-])c3)c(/C=N/NC(=N)N)n12`, for which the IC50 in series [2] was 84.4 µM; in series [3], above 100 µM; in series [4] it was 44.8 µM.

As for `N=C(N)N/N=C/c1c(-c2cc(Cl)sc2Cl)nc2sccn12`, the values for the IC50 in series [2], in series [3] and in series [4] were 65 µM, above 100 µM and 79 µM, respectively.

The values are drawn from ChEMBL document CHEMBL1909514, “Imidazo[2,1-b]thiazole guanylhydrazones as RSK2 inhibitors” (Eur J Med Chem, 2011).
